According to patent publication US7792665B2, “Method for designing a compound based on the three dimensional structure of phosphoinositide dependent protein kinase 1 (PDK1)” (Medical Research Council, priority 2002, dated 2010):
“And” between values parts separate entries of the source, which are not always exact repeats. Equal entries are not always repeated. Blank lines part the entries; values can stand above or below the molecule they belong to. Where no end group is shown, it is not given here. [ ]: non-standard residue; d: D form. pT = C[C@@H](OP(=O)(O)O)[C@H](N)C(=O)O

Key:
[1] = target: T1, PDK1 (Homo sapiens, UniProt O15530); assay: PDK1 protein kinase assay with PDK1tide substrate and [γ-32P]ATP; type: biochemical; conditions: 1 μM inhibitor, 0.1 mM ATP, average of triplicate
T1 sequence (O15530 1-556): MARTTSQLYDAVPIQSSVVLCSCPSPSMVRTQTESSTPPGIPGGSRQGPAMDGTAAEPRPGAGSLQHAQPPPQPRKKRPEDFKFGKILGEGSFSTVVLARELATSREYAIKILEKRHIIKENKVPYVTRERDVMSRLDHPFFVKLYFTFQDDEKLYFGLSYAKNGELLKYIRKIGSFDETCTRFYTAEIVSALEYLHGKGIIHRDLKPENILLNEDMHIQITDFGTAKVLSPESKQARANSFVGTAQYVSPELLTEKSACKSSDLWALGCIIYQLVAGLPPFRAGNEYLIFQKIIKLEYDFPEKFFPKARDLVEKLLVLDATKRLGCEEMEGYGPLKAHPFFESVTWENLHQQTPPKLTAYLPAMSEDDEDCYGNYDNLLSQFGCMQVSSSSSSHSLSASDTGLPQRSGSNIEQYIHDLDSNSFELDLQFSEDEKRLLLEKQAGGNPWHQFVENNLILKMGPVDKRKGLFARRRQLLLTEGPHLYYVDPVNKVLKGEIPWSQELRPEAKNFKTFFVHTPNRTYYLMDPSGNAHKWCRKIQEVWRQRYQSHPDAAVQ
Protocol: (§1) Other protein kinases employed in Table 5, were assayed as described previously.
A structure-based sequence alignment of known kinase structures was obtained from, which was used to validate the sequence-based sequence alignment (Table 5).

[2] = target: T2, CHK1 (Homo sapiens, UniProt O14757); assay: Kinase panel assay, CHK1; type: biochemical; conditions: 1 μM inhibitor, 0.1 mM ATP, average of triplicate
T2 sequence (O14757 1-476): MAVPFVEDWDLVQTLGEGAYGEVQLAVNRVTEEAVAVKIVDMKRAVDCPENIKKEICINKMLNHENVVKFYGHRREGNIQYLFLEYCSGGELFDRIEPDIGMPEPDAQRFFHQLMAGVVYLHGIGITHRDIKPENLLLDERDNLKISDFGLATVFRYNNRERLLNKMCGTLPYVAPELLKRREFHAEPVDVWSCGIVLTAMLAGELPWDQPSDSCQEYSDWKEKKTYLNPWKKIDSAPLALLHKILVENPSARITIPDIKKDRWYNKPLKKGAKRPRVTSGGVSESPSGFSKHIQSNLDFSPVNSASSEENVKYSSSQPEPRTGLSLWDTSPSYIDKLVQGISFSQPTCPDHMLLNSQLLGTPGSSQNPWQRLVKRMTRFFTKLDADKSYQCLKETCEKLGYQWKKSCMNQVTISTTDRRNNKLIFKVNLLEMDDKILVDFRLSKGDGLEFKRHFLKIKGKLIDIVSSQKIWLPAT

[3] = target: PKCα (Homo sapiens, UniProt P17252); assay: Kinase panel assay, PKCα; type: biochemical; conditions: 1 μM inhibitor, 0.1 mM ATP, average of triplicate
[4] = test system: AMPK; assay: Kinase panel assay, AMPK; type: biochemical; conditions: 1 μM inhibitor, 0.1 mM ATP, average of triplicate
Protocol: as §1

[5] = target: PHOS.KINASE (Oryctolagus cuniculus, UniProt P00518); assay: Kinase panel assay, phosphorylase kinase; type: biochemical; conditions: 1 μM inhibitor, 0.1 mM ATP, average of triplicate
[6] = target: Lck (Homo sapiens, UniProt P06239); assay: Kinase panel assay, Lck; type: biochemical; conditions: 1 μM inhibitor, 0.1 mM ATP, average of triplicate
[7] = target: PKBΔPH (Homo sapiens, UniProt P31749); assay: biochemical; conditions: read-out: percentage of kinase activity compared to control incubations, PKBΔPH
Protocol: as §1

[8] = target: ROCK-II (Homo sapiens, UniProt O75116); assay: Kinase panel assay, ROCK-II; type: biochemical; conditions: 1 μM inhibitor, 0.1 mM ATP, average of triplicate
[9] = target: S6K1 (Homo sapiens, UniProt P23443); assay: Kinase panel assay, S6K1; type: biochemical; conditions: 1 μM inhibitor, 0.1 mM ATP, average of triplicate
[10] = target: GSK3β (Homo sapiens, UniProt P49841); assay: Kinase panel assay, GSK3β; type: biochemical; conditions: 1 μM inhibitor, 0.1 mM ATP, average of triplicate
[11] = target: MSK1 (Homo sapiens, UniProt O75582); assay: Kinase panel assay, MSK1; type: biochemical; conditions: 1 μM inhibitor, 0.1 mM ATP, average of triplicate
[12] = target: DYRK1α (Homo sapiens, UniProt Q13627); assay: Kinase panel assay, DYRK1α; type: biochemical; conditions: 1 μM inhibitor, 0.1 mM ATP, average of triplicate
[13] = target: PKA (Homo sapiens, UniProt P17612); assay: Kinase panel assay, PKA; type: biochemical; conditions: 1 μM inhibitor, 0.1 mM ATP, average of triplicate
[14] = target: MKK1 (Homo sapiens, UniProt Q02750); assay: Kinase panel assay, MKK1; type: biochemical; conditions: 1 μM inhibitor, 0.1 mM ATP, average of triplicate
[15] = target: MAPKAP-K2 (Homo sapiens, UniProt P49137); assay: Kinase panel assay, MAPKAP-K2; type: biochemical; conditions: 1 μM inhibitor, 0.1 mM ATP, average of triplicate
[16] = target: CSK (Homo sapiens, UniProt P41240); assay: Kinase panel assay, CSK; type: biochemical; conditions: 1 μM inhibitor, 0.1 mM ATP, average of triplicate
[17] = target: SAPK4/p38δ (Homo sapiens, UniProt O15264); assay: Kinase panel assay, SAPK4/p38δ; type: biochemical; conditions: 1 μM inhibitor, 0.1 mM ATP, average of triplicate
[18] = target: PRAK (Homo sapiens, UniProt Q8IW41); assay: Kinase panel assay, PRAK; type: biochemical; conditions: 1 μM inhibitor, 0.1 mM ATP, average of triplicate
[19] = target: MAPKAP-K1a (Homo sapiens, UniProt Q15418); assay: Kinase panel assay, MAPKAP-K1a; type: biochemical; conditions: 1 μM inhibitor, 0.1 mM ATP, average of triplicate
[20] = target: SGK1 (Homo sapiens, UniProt O00141); assay: Kinase panel assay, SGK1; type: biochemical; conditions: 1 μM inhibitor, 0.1 mM ATP, average of triplicate
[21] = target: JNKSAPK1c (Homo sapiens, UniProt P45983); assay: Kinase panel assay, JNKSAPK1c; type: biochemical; conditions: 1 μM inhibitor, 0.1 mM ATP, average of triplicate
[22] = target: SAPK2α/p38 (Homo sapiens, UniProt Q16539); assay: Kinase panel assay, SAPK2α/p38; type: biochemical; conditions: 1 μM inhibitor, 0.1 mM ATP, average of triplicate
[23] = target: SAPK2β/p38β2 (Homo sapiens, UniProt Q15759); assay: Kinase panel assay, SAPK2β/p38β2; type: biochemical; conditions: 1 μM inhibitor, 0.1 mM ATP, average of triplicate
[24] = target: CK2 (Homo sapiens, UniProt P68400); assay: Kinase panel assay, CK2; type: biochemical; conditions: 1 μM inhibitor, 0.1 mM ATP, average of triplicate
[25] = test system: CK1; assay: Kinase panel assay, CK1; type: biochemical; conditions: 1 μM inhibitor, 0.1 mM ATP, average of triplicate
[26] = target: NEK6 (Homo sapiens, UniProt Q9HC98); assay: Kinase panel assay, NEK6; type: biochemical; conditions: 1 μM inhibitor, 0.1 mM ATP, average of triplicate
[27] = target: T1, PDK1; conditions: literature [21]; cited from earlier work
[28] = target: T2, CHK1; conditions: literature [20]; cited from earlier work
[29] = target: S6K-pHM, phosphopeptide comprising the hydrophobic motif of S6K1; assay: SPR (BiaCore), against wild type PDK1
[30] = target: S6K-pHM, phosphopeptide comprising the hydrophobic motif of S6K1; assay: SPR (BiaCore), rounded value
[31] = target: S6K-pHM, phosphopeptide comprising the hydrophobic motif of S6K1; assay: SPR (BiaCore), maximal response obtained empirically
[32] = target: S6K-pHM, phosphopeptide comprising the hydrophobic motif of S6K1; assay: SPR (BiaCore 3000), biotinylated S6K-pHM on SA chip, GST-PDK1 injected at 2-2150 nM, steady state, apparent Kd
[33] = target: S6K-pHM, phosphopeptide comprising the hydrophobic motif of S6K1; assay: SPR (BiaCore), against PIFtide
[34] = target: S6K-pHM, phosphopeptide comprising the hydrophobic motif of S6K1; assay: SPR (BiaCore), dissociation phase
[35] = target: T3, wild type PDK1 fused through its N-terminus to glutathione S-transferase (GST-PDK1) (human, UniProt O15530 1-556); assay: cell-based or functional assay
T3 sequence: T1 sequence (O15530 1-556)

[36] = target: GST-PDK1[K76A] (human), O15530; assay: cell-based or functional assay
[37] = target: GST-PDK1[Q150A] (human), O15530; assay: cell-based or functional assay
[38] = target: T3, wild type PDK1 fused through its …; assay: SPR (BiaCore), biotinylated peptide on SA chip
Protocol: Binding was analysed in a BiaCore 3000 system (BiaCore AB, Stevenage, UK). […] 30 μl of wild type or the indicated mutant GST-PDK1 were injected at a flow rate of 30 μl/min, in buffer HBS-P (10 mM HEPES pH 7.4, 0.15M NaCl, 0.005% (by vol) polysorbate-20) supplemented with 1 mM DTT. […] Steady state binding was determined at each concentration. Dissociation of PDK1 from the phospho-peptide was monitored over a 1 min period. Regeneration of the sensor chip surface was performed with 10 μl injections of 0.05% SDS.

Sequence of SGK1 (O00141 whole entry): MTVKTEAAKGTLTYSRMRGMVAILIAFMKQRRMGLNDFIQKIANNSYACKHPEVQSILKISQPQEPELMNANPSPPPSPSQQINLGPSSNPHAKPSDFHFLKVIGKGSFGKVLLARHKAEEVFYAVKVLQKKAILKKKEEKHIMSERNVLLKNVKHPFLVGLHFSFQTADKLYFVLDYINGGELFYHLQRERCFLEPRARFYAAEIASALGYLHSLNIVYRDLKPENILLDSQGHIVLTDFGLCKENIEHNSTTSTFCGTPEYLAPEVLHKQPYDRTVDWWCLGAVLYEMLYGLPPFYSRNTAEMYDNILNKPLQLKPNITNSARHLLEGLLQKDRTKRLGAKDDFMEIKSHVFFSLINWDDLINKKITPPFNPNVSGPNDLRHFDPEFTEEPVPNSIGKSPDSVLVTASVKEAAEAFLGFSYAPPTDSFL
Sequence of MSK1 (O75582 whole entry): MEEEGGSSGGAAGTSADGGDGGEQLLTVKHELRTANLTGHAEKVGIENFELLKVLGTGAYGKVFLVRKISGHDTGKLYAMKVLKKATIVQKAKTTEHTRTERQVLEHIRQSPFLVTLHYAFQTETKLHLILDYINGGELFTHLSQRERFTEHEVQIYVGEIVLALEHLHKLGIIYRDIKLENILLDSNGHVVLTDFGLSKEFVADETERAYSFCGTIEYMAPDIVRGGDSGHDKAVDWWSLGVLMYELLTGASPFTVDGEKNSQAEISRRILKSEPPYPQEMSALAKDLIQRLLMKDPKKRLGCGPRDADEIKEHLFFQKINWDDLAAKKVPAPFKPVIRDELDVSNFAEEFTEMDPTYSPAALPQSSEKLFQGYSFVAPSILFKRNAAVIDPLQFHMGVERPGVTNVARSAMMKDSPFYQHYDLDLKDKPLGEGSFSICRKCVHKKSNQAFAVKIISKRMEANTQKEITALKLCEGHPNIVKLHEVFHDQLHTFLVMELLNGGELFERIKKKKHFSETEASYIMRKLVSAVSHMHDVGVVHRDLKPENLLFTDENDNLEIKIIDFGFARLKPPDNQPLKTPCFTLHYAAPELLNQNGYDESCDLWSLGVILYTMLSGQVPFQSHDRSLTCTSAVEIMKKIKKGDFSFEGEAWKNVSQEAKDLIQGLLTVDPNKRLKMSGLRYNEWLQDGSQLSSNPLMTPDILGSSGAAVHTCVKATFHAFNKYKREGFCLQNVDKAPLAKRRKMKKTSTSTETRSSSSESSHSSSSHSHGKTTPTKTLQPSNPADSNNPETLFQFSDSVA
Sequence of ROCK-II (O75116 whole entry, species assumed): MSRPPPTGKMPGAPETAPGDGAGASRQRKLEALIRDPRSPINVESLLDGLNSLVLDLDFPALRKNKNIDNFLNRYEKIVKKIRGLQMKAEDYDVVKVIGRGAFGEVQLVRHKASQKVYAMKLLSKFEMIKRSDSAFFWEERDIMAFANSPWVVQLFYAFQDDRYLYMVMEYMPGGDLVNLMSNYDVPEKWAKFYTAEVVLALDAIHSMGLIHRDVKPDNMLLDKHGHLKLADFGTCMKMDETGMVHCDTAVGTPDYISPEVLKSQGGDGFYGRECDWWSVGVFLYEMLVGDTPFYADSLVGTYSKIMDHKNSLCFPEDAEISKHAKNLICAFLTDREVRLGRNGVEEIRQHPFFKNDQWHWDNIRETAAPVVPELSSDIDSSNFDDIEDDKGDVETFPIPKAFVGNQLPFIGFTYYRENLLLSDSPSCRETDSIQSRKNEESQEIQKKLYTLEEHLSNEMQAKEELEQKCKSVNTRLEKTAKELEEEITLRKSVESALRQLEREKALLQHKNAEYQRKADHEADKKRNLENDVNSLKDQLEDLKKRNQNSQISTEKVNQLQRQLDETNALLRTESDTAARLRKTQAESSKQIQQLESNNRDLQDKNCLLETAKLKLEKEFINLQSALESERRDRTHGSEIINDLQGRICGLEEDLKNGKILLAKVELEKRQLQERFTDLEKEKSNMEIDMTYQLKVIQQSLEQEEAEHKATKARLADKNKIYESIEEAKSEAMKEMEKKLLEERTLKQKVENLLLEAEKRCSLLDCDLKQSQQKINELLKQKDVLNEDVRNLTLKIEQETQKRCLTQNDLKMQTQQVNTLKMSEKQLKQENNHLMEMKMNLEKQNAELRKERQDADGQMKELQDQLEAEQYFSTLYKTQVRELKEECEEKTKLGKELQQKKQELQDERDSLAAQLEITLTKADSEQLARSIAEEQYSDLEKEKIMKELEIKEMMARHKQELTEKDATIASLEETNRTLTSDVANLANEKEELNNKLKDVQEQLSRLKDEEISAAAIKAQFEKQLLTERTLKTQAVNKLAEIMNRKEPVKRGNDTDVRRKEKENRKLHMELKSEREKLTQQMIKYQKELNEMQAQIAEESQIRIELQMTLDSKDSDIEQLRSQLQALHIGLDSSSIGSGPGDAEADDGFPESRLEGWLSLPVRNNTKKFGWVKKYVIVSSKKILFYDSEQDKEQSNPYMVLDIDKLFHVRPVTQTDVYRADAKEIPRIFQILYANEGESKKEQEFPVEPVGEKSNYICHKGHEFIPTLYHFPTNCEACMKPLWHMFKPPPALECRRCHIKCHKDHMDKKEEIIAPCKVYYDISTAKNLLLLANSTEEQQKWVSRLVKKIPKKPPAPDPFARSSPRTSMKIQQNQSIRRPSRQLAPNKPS
Sequence of NEK6 (Q9HC98 whole entry, species assumed): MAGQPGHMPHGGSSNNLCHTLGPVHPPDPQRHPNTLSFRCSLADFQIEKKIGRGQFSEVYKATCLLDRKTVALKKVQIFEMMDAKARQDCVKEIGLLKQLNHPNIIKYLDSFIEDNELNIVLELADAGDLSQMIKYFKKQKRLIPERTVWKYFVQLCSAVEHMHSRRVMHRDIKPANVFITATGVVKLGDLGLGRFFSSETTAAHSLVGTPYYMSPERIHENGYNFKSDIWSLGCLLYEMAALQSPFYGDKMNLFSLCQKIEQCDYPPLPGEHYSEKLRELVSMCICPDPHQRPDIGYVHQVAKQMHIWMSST
Sequence of SAPK2β/p38β2 (Q15759 whole entry): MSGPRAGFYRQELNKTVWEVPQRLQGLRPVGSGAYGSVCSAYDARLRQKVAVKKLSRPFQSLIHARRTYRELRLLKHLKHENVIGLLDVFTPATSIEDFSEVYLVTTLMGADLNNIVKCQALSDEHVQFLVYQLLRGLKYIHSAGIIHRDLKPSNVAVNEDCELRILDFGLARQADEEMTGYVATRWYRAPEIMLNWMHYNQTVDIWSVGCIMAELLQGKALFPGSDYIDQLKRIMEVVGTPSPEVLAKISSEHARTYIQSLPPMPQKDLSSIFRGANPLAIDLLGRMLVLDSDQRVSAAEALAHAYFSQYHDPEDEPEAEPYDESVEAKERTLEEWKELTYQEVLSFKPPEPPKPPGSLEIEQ
Sequence of CK2 (P68400 whole entry): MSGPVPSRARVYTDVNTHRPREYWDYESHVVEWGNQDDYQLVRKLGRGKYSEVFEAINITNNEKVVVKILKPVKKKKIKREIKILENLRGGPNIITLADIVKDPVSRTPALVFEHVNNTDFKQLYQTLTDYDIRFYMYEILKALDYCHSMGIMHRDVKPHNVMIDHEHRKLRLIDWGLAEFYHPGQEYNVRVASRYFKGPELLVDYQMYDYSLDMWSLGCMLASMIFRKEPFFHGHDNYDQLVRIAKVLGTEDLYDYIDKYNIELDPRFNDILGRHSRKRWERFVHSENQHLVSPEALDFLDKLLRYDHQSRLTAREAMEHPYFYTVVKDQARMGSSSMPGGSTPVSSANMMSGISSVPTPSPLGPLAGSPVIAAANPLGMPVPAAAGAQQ
Sequence of SAPK2α/p38 (Q16539 whole entry): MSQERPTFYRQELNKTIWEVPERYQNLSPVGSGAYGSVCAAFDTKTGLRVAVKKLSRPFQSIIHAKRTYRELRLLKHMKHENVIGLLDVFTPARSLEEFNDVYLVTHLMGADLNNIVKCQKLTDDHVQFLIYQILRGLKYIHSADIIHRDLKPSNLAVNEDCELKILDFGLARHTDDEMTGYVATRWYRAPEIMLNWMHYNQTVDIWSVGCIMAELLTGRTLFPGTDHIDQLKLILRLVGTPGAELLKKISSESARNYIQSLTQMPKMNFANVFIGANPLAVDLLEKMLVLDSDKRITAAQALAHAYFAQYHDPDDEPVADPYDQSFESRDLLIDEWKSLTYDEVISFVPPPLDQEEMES

Molecule: CN[C@@H]1C[C@H]2O[C@@](C)([C@@H]1OC)n1c3ccccc3c3c4c(c5c6ccccc6n2c5c31)C(=O)N[C@H]4O [UCN-01, 7-hydroxyl staurosporine]
percentage of kinase activity compared to control incubations, PDK1 [1]: 0 ± 1% | percentage of kinase activity compared to control incubations, CHK1 [2]: 1 ± 0% | percentage of kinase activity compared to control incubations, PKCα [3]: 1 ± 0% | percentage of kinase activity compared to control incubations, AMPK [4]: 1 ± 1% | percentage of kinase activity compared to control incubations, PHOS.KINASE [5]: 1 ± 2% | percentage of kinase activity compared to control incubations, Lck [6]: 3 ± 1% | remaining activity at 1 µM [7]: 9 ± 1% | percentage of kinase activity compared to control incubations, ROCK-II [8]: 13 ± 2% | percentage of kinase activity compared to control incubations, S6K1 [9]: 21 ± 4% | percentage of kinase activity compared to control incubations, GSK3β [10]: 25 ± 5% | percentage of kinase activity compared to control incubations, MSK1 [11]: 11% and 11 ± 0% | percentage of kinase activity compared to control incubations, DYRK1α [12]: 15 ± 2% | percentage of kinase activity compared to control incubations, PKA [13]: 27 ± 2% | percentage of kinase activity compared to control incubations, MKK1 [14]: 53 ± 1% | percentage of kinase activity compared to control incubations, MAPKAP-K2 [15]: 60 ± 1% | percentage of kinase activity compared to control incubations, CSK [16]: 58 ± 3% | percentage of kinase activity compared to control incubations, SAPK4/p38δ [17]: 100 ± 7% | percentage of kinase activity compared to control incubations, PRAK [18]: 89 ± 4% | percentage of kinase activity compared to control incubations, MAPKAP-K1a [19]: 1 ± 1% | percentage of kinase activity compared to control incubations, SGK1 [20]: 25% and 22 ± 4% | percentage of kinase activity compared to control incubations, JNKSAPK1c [21]: 112 ± 6% | percentage of kinase activity compared to control incubations, SAPK2α/p38 [22]: 107 ± 5% | percentage of kinase activity compared to control incubations, SAPK2β/p38β2 [23]: 106 ± 4% | percentage of kinase activity compared to control incubations, CK2 [24]: 102 ± 11% | percentage of kinase activity compared to control incubations, CK1 [25]: 96 ± 0% | percentage of kinase activity compared to control incubations, NEK6 [26]: 80 ± 7% | inhibition of PDK1, recent reports [27]: low nM range | inhibition of Chk1, recent reports [28]: low nM range

B1: S6K-pHM, phosphopeptide comprising the hydrophobic motif of S6K1 (peptide)
peptide: SESANQVFLGF[pT]YVAPSV
modifications: not fully specified; printed as SESANQVFLGFT*YVAPSV
maximal activation of PDK1 activity towards T308tide [35]: 5 fold | concentration of S6K-pHM for half maximal activation, against wild type PDK1 (fold higher than wild type PDK1) [36]: 3 | activation of PDK1 activity towards T308tide [37]: 2 fold and 3 fold

B2: S6K-HM, non-phosphorylated peptide comprising the hydrophobic motif of S6K1 (peptide)
peptide: SESANQVFLGFTYVAPSV
modifications: also: biotinylated in BiaCore assay
notes: also called 56K-HM
activation of PDK1 activity towards T308tide [35]: < 2 fold | binding result [38]: no binding (tested: 2-2150 nM)

The remaining lines, values ahead:

fold higher affinity than wild type PDK1 [29]: 10 fold | Kd [30]: 0.06 µM | RUmax [31]: 435 RU | Kd [32]: 0.064 µM
Molecule: GST-PDK1[T148A] (from UniProt O15530 1-556) (enzyme)

fold lower affinity than for PIFtide [33]: 100 fold | time taken for 50% dissociation [34]: 30 s | Kd [30]: 0.6 µM | Kd [32]: 0.642 µM
Molecule: wild type PDK1 fused through its N-terminus to glutathione S-transferase (GST-PDK1) (from UniProt O15530 1-556) (enzyme)
